Source: the supplement of paper PMC4862054

System: HDQ-P1
Assay: drug sensitivity score (DSS), CellTiter-Blue viability (DSS (AUC-based score)); higher = stronger viability inhibition; extreme values may be limits of the assay
Details: incubation time: 72 h
Protocol: (§1)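 DSRT with the CellTiter-Blue (resazurin reduction) viability readout, fluorescence 560/590 nm, 72 h incubation. Plates were normalised to DMSO and benzethonium chloride controls. DSS is computed from the area under the fitted dose-response curve (5 or 9 concentrations).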

Compound | drug sensitivity score
CC1=C(/C=C/C(C)=C/C=C/C(C)=C/C(=O)O)C(C)(C)CCC1 [Tretinoin] | 0
Nc1ccccc1NC(=O)c1ccc(CNC(=O)OCc2cccnc2)cc1 [Entinostat] | 0
C=CC(=O)Nc1cc2c(Nc3ccc(F)c(Cl)c3)ncnc2cc1OCCCN1CCOCC1 [Canertinib] | 14
CCCCC(=O)OCC(=O)[C@]1(O)Cc2c(O)c3c(c(O)c2[C@@H](O[C@H]2C[C@H](NC(=O)C(F)(F)F)[C@H](O)[C@H](C)O2)C1)C(=O)c1c(OC)cccc1C3=O [Valrubicin] | 9.44

System: CAL-120
Assay: as above
Details: incubation time: 72 h
Protocol: as §1

Compound | drug sensitivity score
CCc1cncnc1N1CCN(Cc2nc3ccc(C(F)(F)F)cc3[nH]2)CC1 | 0
Oc1ncc(N(CCCl)CCCl)c(O)n1 [Uracil mustard] | 0
COc1cc2nccc(Oc3ccc(NC(=O)Nc4cc(C)on4)c(Cl)c3)c2cc1OC [Tivozanib] | 2.1
O=C(Cc1ccc(-c2ccc(OCCN3CCOCC3)cc2)cn1)NCc1ccccc1 [KX2-391] | 23.4
CC1=C(/C=C/C(C)=C/C=C/C(C)=C/C(=O)O)C(C)(C)CCC1 [Tretinoin] | 0
Nc1ccccc1NC(=O)c1ccc(CNC(=O)OCc2cccnc2)cc1 [Entinostat] | 8.06
C=CC(=O)Nc1cc2c(Nc3ccc(F)c(Cl)c3)ncnc2cc1OCCCN1CCOCC1 [Canertinib] | 6.69
CCCCC(=O)OCC(=O)[C@]1(O)Cc2c(O)c3c(c(O)c2[C@@H](O[C@H]2C[C@H](NC(=O)C(F)(F)F)[C@H](O)[C@H](C)O2)C1)C(=O)c1c(OC)cccc1C3=O [Valrubicin] | 15.3

System: MDA-MB-231
Assay: as above
Details: incubation time: 72 h
Protocol: as §1

Compound | drug sensitivity score
CCc1cncnc1N1CCN(Cc2nc3ccc(C(F)(F)F)cc3[nH]2)CC1 | 0
Oc1ncc(N(CCCl)CCCl)c(O)n1 [Uracil mustard] | 0
COc1cc2nccc(Oc3ccc(NC(=O)Nc4cc(C)on4)c(Cl)c3)c2cc1OC [Tivozanib] | 3.77
O=C(Cc1ccc(-c2ccc(OCCN3CCOCC3)cc2)cn1)NCc1ccccc1 [KX2-391] | 24.2
CC1=C(/C=C/C(C)=C/C=C/C(C)=C/C(=O)O)C(C)(C)CCC1 [Tretinoin] | 0
Nc1ccccc1NC(=O)c1ccc(CNC(=O)OCc2cccnc2)cc1 [Entinostat] | 4.99
C=CC(=O)Nc1cc2c(Nc3ccc(F)c(Cl)c3)ncnc2cc1OCCCN1CCOCC1 [Canertinib] | 8.24
CCCCC(=O)OCC(=O)[C@]1(O)Cc2c(O)c3c(c(O)c2[C@@H](O[C@H]2C[C@H](NC(=O)C(F)(F)F)[C@H](O)[C@H](C)O2)C1)C(=O)c1c(OC)cccc1C3=O [Valrubicin] | 10.8

System: HCC1143
Assay: as above
Details: incubation time: 72 h
Protocol: as §1

Compound | drug sensitivity score
CCc1cncnc1N1CCN(Cc2nc3ccc(C(F)(F)F)cc3[nH]2)CC1 | 0
Oc1ncc(N(CCCl)CCCl)c(O)n1 [Uracil mustard] | 0
COc1cc2nccc(Oc3ccc(NC(=O)Nc4cc(C)on4)c(Cl)c3)c2cc1OC [Tivozanib] | 0
O=C(Cc1ccc(-c2ccc(OCCN3CCOCC3)cc2)cn1)NCc1ccccc1 [KX2-391] | 23.1
CC1=C(/C=C/C(C)=C/C=C/C(C)=C/C(=O)O)C(C)(C)CCC1 [Tretinoin] | 0
Nc1ccccc1NC(=O)c1ccc(CNC(=O)OCc2cccnc2)cc1 [Entinostat] | 2.98
C=CC(=O)Nc1cc2c(Nc3ccc(F)c(Cl)c3)ncnc2cc1OCCCN1CCOCC1 [Canertinib] | 3.63
CCCCC(=O)OCC(=O)[C@]1(O)Cc2c(O)c3c(c(O)c2[C@@H](O[C@H]2C[C@H](NC(=O)C(F)(F)F)[C@H](O)[C@H](C)O2)C1)C(=O)c1c(OC)cccc1C3=O [Valrubicin] | 11.4

System: BT-474
Assay: as above
Details: incubation time: 72 h
Protocol: as §1

Compound | drug sensitivity score
CCc1cncnc1N1CCN(Cc2nc3ccc(C(F)(F)F)cc3[nH]2)CC1 | 0
Oc1ncc(N(CCCl)CCCl)c(O)n1 [Uracil mustard] | 0
COc1cc2nccc(Oc3ccc(NC(=O)Nc4cc(C)on4)c(Cl)c3)c2cc1OC [Tivozanib] | 2.36
O=C(Cc1ccc(-c2ccc(OCCN3CCOCC3)cc2)cn1)NCc1ccccc1 [KX2-391] | 11.2
CC1=C(/C=C/C(C)=C/C=C/C(C)=C/C(=O)O)C(C)(C)CCC1 [Tretinoin] | 0
Nc1ccccc1NC(=O)c1ccc(CNC(=O)OCc2cccnc2)cc1 [Entinostat] | 3.64
C=CC(=O)Nc1cc2c(Nc3ccc(F)c(Cl)c3)ncnc2cc1OCCCN1CCOCC1 [Canertinib] | 18.5
CCCCC(=O)OCC(=O)[C@]1(O)Cc2c(O)c3c(c(O)c2[C@@H](O[C@H]2C[C@H](NC(=O)C(F)(F)F)[C@H](O)[C@H](C)O2)C1)C(=O)c1c(OC)cccc1C3=O [Valrubicin] | 5.42

System: MDA-MB-436
Assay: as above
Details: incubation time: 72 h
Protocol: as §1

Compound | drug sensitivity score
CCc1cncnc1N1CCN(Cc2nc3ccc(C(F)(F)F)cc3[nH]2)CC1 | 0
Oc1ncc(N(CCCl)CCCl)c(O)n1 [Uracil mustard] | 0
COc1cc2nccc(Oc3ccc(NC(=O)Nc4cc(C)on4)c(Cl)c3)c2cc1OC [Tivozanib] | 0
O=C(Cc1ccc(-c2ccc(OCCN3CCOCC3)cc2)cn1)NCc1ccccc1 [KX2-391] | 14.6
CC1=C(/C=C/C(C)=C/C=C/C(C)=C/C(=O)O)C(C)(C)CCC1 [Tretinoin] | 0
Nc1ccccc1NC(=O)c1ccc(CNC(=O)OCc2cccnc2)cc1 [Entinostat] | 0
C=CC(=O)Nc1cc2c(Nc3ccc(F)c(Cl)c3)ncnc2cc1OCCCN1CCOCC1 [Canertinib] | 11.6
CCCCC(=O)OCC(=O)[C@]1(O)Cc2c(O)c3c(c(O)c2[C@@H](O[C@H]2C[C@H](NC(=O)C(F)(F)F)[C@H](O)[C@H](C)O2)C1)C(=O)c1c(OC)cccc1C3=O [Valrubicin] | 5.44

System: CAL-51
Assay: as above
Details: incubation time: 72 h
Protocol: as §1

Compound | drug sensitivity score
CCc1cncnc1N1CCN(Cc2nc3ccc(C(F)(F)F)cc3[nH]2)CC1 | 0
Oc1ncc(N(CCCl)CCCl)c(O)n1 [Uracil mustard] | 0
COc1cc2nccc(Oc3ccc(NC(=O)Nc4cc(C)on4)c(Cl)c3)c2cc1OC [Tivozanib] | 2.51
O=C(Cc1ccc(-c2ccc(OCCN3CCOCC3)cc2)cn1)NCc1ccccc1 [KX2-391] | 24.2
CC1=C(/C=C/C(C)=C/C=C/C(C)=C/C(=O)O)C(C)(C)CCC1 [Tretinoin] | 0
Nc1ccccc1NC(=O)c1ccc(CNC(=O)OCc2cccnc2)cc1 [Entinostat] | 1.7
C=CC(=O)Nc1cc2c(Nc3ccc(F)c(Cl)c3)ncnc2cc1OCCCN1CCOCC1 [Canertinib] | 3.66
CCCCC(=O)OCC(=O)[C@]1(O)Cc2c(O)c3c(c(O)c2[C@@H](O[C@H]2C[C@H](NC(=O)C(F)(F)F)[C@H](O)[C@H](C)O2)C1)C(=O)c1c(OC)cccc1C3=O [Valrubicin] | 20.6
